For one assay, the target named is T1, PI3Kγ (p120γ) (Homo sapiens, UniProt P48736).
T1 construct: purchased BPS Bioscience (San Diego, Calif.) or Millipore (Billerica, Mass.)
Description: HTRF assay, potency against active PI3Kγ. The class given is biochemical. The following applies: [ATP]=50 μM, [di-C8-PIP2]=10 μM, 30 min pre-incubation, read-out: PI3Kγ Inhibition. The source says:
Homogeneous Time Resolved Fluorescence (HTRF) Assay Protocol for Potency Assessment Against the Active Forms of PI3Kα, PI3Kβ, and PI3Kγ
The protocol below describes an end-point, competition-binding HTRF assay used to measure inherent potency of test compounds against active PI3Kα (p110α/p85α), PI3Kβ (p110β/p85α), and PI3Kγ (p120γ) enzymes. The mechanics of the assay platform are best described by the vendor (Millipore, Billerica, Mass.) on their website at the following URL: www.millipore.com/coa/tech1/74jt4z.
Briefly, Stop solution (Stop A, #33-007 and Stop B, #33-009; 3:1 ratio) and Detection Mix (from DMC, #33-015 with DMA, #33-011 and DMB, #33-013; 18:1:1 ratio) were prepared as recommended by the manufacturer about 2 hrs prior to use. Additionally, 1× reaction buffer (from 4× buffer stock# 33-003), 1.4× stocks of PI3Kα, PI3Kβ, and PI3Kγ enzymes from BPS Bioscience (San Diego, Calif.) or Millipore (Billerica, Mass.) with di-C8-PIP2 lipid substrate (#33-005), and a 4×ATP solution (#A7699 Sigma/Aldrich; St. Louis, Mo.) were prepared in 1× reaction buffer. 15 μL of PI3K enzymes and lipid substrate mix were pre-incubated in a Corning (#3573) 384-well, black, non-treated microtiter plate (Corning, N.Y.) for 30 min at 25° C. with a 0.5 μL volume of 50% DMSO and serially diluted compounds prepared in 50% DMSO. Lipid kinase reactions were started with the addition of 5 μL of ATP solution, mixed for 15 sec on a rotary plate shaker and incubated for 30-60 minutes at 25° C. Next, reactions were stopped with a 5 μL addition of Stop solution immediately followed by a 5 μL volume of Detection Mix. Stopped reactions were equilibrated for 1 and 18 hrs at room temperature and read in a Synergy^4 plate reader from BioTek (Winooski, Vt.) at λex330-80/λem620-35 and λem665-7.5. At the conclusion of each assay, the HTRF ratio from fluorescence emission values for each well was calculated and % Inhibition determined from averaged controls wells (+/−PI3K enzyme). % Inhibition values for each compound were then plotted against inhibitor concentration to estimate IC50 from log [Inhibitor] vs Response, Variable Slope model in GraphPad Prism from GraphPad Software (San Diego, Calif.).
[Reagent] used in optimized protocol: • [p110α/p85α]=0.5-1.5 nM, [ATP]=50 μM, [di-C8—PIP2]=10 μM • [p110β/p85α]=0.75 nM, [ATP]=50 μM, [di-C8—PIP2]=10 μM • [p120γ]=2-2.5 nM, [ATP]=50 μM, [di-C8—PIP2]=10 μM • (ATP KMapp for both enzymes was estimated to be 40-70 μM)
A general note: TR-FRET usually uses a lanthanide donor and a delayed reading to cut background.

A further assay addresses T2, PI3Kα (p110α/p85α) (Homo sapiens, UniProt P42336).
T2 construct: purchased BPS Bioscience (San Diego, Calif.) or Millipore (Billerica, Mass.)
As to the kind of experiment: HTRF assay, potency against active PI3Kα. Type of assay: biochemical. The following applies: HTRF; [ATP]=50 μM, [di-C8-PIP2]=10 μM; 30 min pre-incubation; read-out: PI3Kα Inhibition. The method in brief:
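Active p110/p85α lipid kinase reactions were started with ATP and run 30-60 minutes at 25 °C, then stopped and developed with HTRF detection mix. HTRF ratio converted to % inhibition against ±enzyme controls; IC50 from log[inhibitor] vs response, variable slope.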

Another assay concerns Phospho-Akt(Ser473). Description: Dose response in SKOV3 cells as determined by in-cell Western. The class given is cell-based. The following applies: Homo sapiens, SK-OV-3; SKOV3 cells, 1 hr; read-out: pAKT Inhibition in cell Western. As to the method: Dose Response in SKOV3 Cells as Determined by in-Cell Western
Twenty four hours later the media was removed and replaced with 100 ul media containing test compound or control compound and cells were returned to the incubator for 1 hr. At the end of the hour, the media was removed and the cells were washed once with PBS, then fixed for 20 minutes at room temperature in 4% formaldehyde in PBS. The formaldehyde was removed and cells were washed 5 times for 5 minutes with 100 ul of Permeabilization Buffer (PBS+0.1% Triton X-100) at room temperature with gentle shaking. The last wash was removed and replaced with 150 ul of Odyssey Blocking Buffer (Li-Cor, Lincoln, Nebr.) and incubated for 90 minutes at room temperature with gentle shaking.
The Blocking Buffer was then replaced with 50 ul of primary antibody mix (rabbit anti-Phospho-Akt(Ser473) at 1:100 (Cell Signaling Technology, Boston, Mass.) and mouse anti-tubulin at 1:5000 (Sigma Aldrich, St. Louis, Mo.) diluted in Odyssey Blocking Buffer) and incubated overnight at room temperature with gentle shaking.
The next morning, the antibody mix was removed and the wells were washed 5 times for 5 minutes with PBS+0.1% Tween-20. The last wash was replaced with 50 ul of secondary antibody mix (goat anti-rabbit-IRDye-680 and goat anti-mouse-IRDye-800 (Li-Cor), both diluted 1:1000 in Odyssey Blocking Buffer+0.2% Tween-20) and incubated for 1 hour at room temperature with gentle shaking. The antibody mix was removed and the wells were washed 5 times for 5 minutes in PBS+0.1% Tween-20, then 1 time with ddH2O.
The plates were scanned on an Odyssey machine (Li-Cor) with a 3 mm focus offset at an intensity of 8 in both channels and the data was analyzed using the Odyssey software.

SMILES strings stand for the structures. A value given as a limit tells only on which side of the number the result lay.

T2 sequence (P42336 whole entry): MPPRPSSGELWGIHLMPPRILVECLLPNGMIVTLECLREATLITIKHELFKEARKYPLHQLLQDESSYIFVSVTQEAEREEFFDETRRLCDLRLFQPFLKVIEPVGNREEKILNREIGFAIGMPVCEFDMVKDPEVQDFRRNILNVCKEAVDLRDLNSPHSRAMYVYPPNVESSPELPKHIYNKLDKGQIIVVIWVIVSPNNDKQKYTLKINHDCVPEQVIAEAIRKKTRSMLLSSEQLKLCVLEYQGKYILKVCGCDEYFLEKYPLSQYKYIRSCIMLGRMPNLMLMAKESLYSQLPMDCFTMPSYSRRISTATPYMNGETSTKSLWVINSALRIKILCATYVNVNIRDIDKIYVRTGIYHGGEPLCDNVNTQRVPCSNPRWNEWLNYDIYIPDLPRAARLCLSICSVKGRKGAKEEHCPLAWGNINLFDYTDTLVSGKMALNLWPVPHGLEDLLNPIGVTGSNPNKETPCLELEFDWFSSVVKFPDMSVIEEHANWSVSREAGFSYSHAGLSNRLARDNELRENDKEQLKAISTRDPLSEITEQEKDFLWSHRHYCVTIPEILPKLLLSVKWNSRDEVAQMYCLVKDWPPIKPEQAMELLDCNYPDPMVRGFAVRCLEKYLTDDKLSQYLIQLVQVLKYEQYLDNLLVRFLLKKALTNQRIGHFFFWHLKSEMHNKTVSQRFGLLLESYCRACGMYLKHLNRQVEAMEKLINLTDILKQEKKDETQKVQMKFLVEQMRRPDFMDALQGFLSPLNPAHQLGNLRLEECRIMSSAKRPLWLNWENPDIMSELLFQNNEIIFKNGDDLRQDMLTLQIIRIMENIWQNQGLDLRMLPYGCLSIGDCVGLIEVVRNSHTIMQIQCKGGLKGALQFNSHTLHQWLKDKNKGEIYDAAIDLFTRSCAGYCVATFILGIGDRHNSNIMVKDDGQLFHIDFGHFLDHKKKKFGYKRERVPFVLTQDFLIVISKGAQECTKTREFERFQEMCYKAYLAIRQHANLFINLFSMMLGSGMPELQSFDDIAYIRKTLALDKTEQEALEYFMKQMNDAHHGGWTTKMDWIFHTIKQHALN
T2 sequence (P27986 whole entry partner): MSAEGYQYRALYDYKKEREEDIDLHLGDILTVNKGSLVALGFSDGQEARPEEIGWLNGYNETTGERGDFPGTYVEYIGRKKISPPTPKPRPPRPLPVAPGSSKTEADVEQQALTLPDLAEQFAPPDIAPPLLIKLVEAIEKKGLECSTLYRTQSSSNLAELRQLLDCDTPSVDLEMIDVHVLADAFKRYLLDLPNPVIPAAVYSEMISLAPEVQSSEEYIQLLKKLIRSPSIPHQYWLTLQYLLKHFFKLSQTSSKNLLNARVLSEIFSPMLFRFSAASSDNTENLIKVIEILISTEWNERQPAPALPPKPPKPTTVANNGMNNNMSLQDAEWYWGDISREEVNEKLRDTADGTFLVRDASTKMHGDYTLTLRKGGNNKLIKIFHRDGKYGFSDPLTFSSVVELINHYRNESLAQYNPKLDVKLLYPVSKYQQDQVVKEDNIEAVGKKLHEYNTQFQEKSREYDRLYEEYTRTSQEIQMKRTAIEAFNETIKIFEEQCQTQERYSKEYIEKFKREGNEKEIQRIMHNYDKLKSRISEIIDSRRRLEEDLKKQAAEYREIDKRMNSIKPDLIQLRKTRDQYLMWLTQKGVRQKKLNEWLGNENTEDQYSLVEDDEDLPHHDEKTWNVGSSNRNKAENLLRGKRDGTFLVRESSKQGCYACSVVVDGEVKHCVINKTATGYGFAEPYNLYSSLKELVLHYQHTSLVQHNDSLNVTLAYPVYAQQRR
T1 sequence (P48736 whole entry): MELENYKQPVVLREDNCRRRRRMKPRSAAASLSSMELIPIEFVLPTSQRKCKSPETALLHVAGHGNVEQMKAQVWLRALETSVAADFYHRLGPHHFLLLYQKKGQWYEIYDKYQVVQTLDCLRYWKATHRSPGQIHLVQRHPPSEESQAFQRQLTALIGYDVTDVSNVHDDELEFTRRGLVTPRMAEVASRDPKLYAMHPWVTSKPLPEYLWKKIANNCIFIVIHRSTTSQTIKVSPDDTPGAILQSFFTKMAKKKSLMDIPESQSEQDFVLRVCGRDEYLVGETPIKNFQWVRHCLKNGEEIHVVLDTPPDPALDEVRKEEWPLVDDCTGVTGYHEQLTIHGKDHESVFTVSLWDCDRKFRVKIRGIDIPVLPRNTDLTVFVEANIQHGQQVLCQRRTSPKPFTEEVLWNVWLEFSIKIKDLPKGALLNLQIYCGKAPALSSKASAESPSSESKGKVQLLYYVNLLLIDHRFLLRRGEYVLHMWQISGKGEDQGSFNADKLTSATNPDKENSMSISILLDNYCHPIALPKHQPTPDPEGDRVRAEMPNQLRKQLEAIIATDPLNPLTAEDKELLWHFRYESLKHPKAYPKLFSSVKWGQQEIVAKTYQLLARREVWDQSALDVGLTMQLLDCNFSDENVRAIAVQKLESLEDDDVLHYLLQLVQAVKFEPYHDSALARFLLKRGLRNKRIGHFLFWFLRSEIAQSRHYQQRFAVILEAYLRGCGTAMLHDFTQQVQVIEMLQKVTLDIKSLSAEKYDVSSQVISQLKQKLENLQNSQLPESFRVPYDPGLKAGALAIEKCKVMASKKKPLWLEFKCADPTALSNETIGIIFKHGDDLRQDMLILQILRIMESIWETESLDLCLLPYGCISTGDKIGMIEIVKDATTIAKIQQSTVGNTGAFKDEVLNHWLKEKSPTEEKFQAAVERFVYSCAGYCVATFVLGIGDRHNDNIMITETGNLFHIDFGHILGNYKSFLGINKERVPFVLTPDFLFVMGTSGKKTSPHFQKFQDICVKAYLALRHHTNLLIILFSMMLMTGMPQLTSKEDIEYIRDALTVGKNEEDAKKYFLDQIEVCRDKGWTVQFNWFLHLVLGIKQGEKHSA

Turning to `CN(C/C=C/C(=O)CCC(=O)N1CCN(Cc2cc3nc(-c4cccc5[nH]ncc45)nc(N4CCOCC4)c3s2)CC1)C(=O)OC(C)(C)C` [II-a-24], the IC50 at PI3Kγ (p120γ) is above 1000 nM; on PI3Kα (p110α/p85α) it was 10 to 100 nM.

Regarding `CN(C)C/C=C/C(=O)NCC(=O)N1CCN(Cc2cc3nc(-c4cccc5[nH]ncc45)nc(N4CCOCC4)c3s2)CC1` [II-a-56, (E)-N-(2-(4-((2-(1H-indazol-4-yl)-4-morpholinothieno[3,2-d]pyrimidin-6-yl)methyl)piperazin-1-yl)-2-oxoethyl)-4-(dimethylamino)but-2-enamide], the results for the IC50 at PI3Kγ (p120γ) and on PI3Kα (p110α/p85α) were above 1000 nM and 100 to 1000 nM, respectively.

On to `C=CC(=O)N[C@H]1CC[C@H](C(=O)N(C)Cc2cc3nc(-c4cccc(O)c4)nc(N4CCOCC4)c3s2)CC1` [II-a-42], for which the IC50 at PI3Kγ (p120γ) and on PI3Kα (p110α/p85α) was above 1000 nM in each case.

`COC/C=C(\C)C(=O)CCC(=O)N1CCN(Cc2cc3nc(-c4cccc5[nH]ncc45)nc(N4CCOCC4)c3s2)CC1` [II-a-161, (E)-1-(4-((2-(1H-indazol-4-yl)-4-morpholinothieno[3,2-d]pyrimidin-6-yl)methyl)piperazin-1-yl)-7-methoxy-5-methylhept-5-ene-1,4-dione]: on PI3Kα (p110α/p85α), the IC50 lay in the range of 100 to 1000 nM. In addition, the EC50 in the assay with Phospho-Akt(Ser473) is at most 10 nM.

Take `Cc1ccccc1/C=C/C(=O)CCC(=O)N1CCN(Cc2cc3nc(-c4cccc5[nH]ncc45)nc(N4CCOCC4)c3s2)CC1` [II-a-138, (E)-1-(4-((2-(1H-indazol-4-yl)-4-morpholinothieno[3,2-d]pyrimidin-6-yl)methyl)piperazin-1-yl)-6-o-tolylhex-5-ene-1,4-dione]: on PI3Kα (p110α/p85α), the IC50 was 10 to 100 nM. Also, in the assay on Phospho-Akt(Ser473), the EC50 was 100 to 1000 nM.

`C=CC(=O)Nc1ccc(C(=O)N2CCN(Cc3cc4nc(-c5cccc6[nH]ncc56)nc(N5CCOCC5)c4s3)CC2)cc1` [II-a-117, N-(4-(4-((2-(1H-indazol-4-yl)-4-morpholinothieno[3,2-d]pyrimidin-6-yl)methyl)piperazine-1-carbonyl)phenyl)acrylamide]: at PI3Kα (p110α/p85α), the IC50 was 100 to 1000 nM. In the assay on Phospho-Akt(Ser473), the EC50 fell in the range of 10 to 100 nM.

With `C=CC(=O)Nc1ccc(N2CCN(C(=O)c3cc4nc(-c5cccc(O)c5)nc(N5CCOCC5)c4s3)CC2)cc1` [II-a-127, N-(4-(4-(2-(3-hydroxyphenyl)-4-morpholinothieno[3,2-d]pyrimidine-6-carbonyl)piperazin-1-yl)phenyl)acrylamide], the IC50 on PI3Kα (p110α/p85α) was 100 to 1000 nM. For the same compound, in the assay on Phospho-Akt(Ser473), the EC50 is at most 10 nM.

With `C=C(CC)C(=O)CCC(=O)N1CCN(c2ccc(-c3ccnc4ccc(/C=C5\SC(=O)NC5=O)cc34)cn2)CC1` [V-20, (Z)-5-((4-(6-(4-(5-methylene-4-oxoheptanoyl)piperazin-1-yl)pyridin-3-yl)quinolin-6-yl)methylene)thiazolidine-2,4-dione], on PI3Kα (p110α/p85α), the IC50 was below 10 nM. Also, the EC50 in the assay on Phospho-Akt(Ser473) lay within 10 to 100 nM.

As for `C=CC(=O)Nc1ccc(C(=O)N2CC=C(c3cc(-c4cnc(N)nc4)nc(N4CCOCC4)c3)CC2)cc1` [XII-46, N-(4-(4-(2-(2-aminopyrimidin-5-yl)-6-morpholinopyridin-4-yl)-1,2,3,6-tetrahydropyridine-1-carbonyl)phenyl)acrylamide], the IC50 at PI3Kα (p110α/p85α) lay in the range of 100 to 1000 nM. For the same compound, in the assay on Phospho-Akt(Ser473), the EC50 fell in the range of 100 to 1000 nM.

As to `C/C=C/C(=O)CCC(=O)NCc1ccc(-c2cc3nc(-c4cccc5[nH]ncc45)nc(N4CCOCC4)c3s2)cc1` [II-a-115, (E)-N-(4-(2-(1H-indazol-4-yl)-4-morpholinothieno[3,2-d]pyrimidin-6-yl)benzyl)-4-oxohept-5-enamide], the IC50 at PI3Kα (p110α/p85α) fell in the range of 10 to 100 nM. The EC50 in the assay on Phospho-Akt(Ser473) lay in the range of 100 to 1000 nM.

Turning to `C=C(C)C(=O)c1ccc(C(=O)N2CC=C(c3cc(-c4cnc(N)nc4)nc(N4CCOCC4)c3)CC2)cc1` [XII-49, 1-(4-(4-(2-(2-aminopyrimidin-5-yl)-6-morpholinopyridin-4-yl)-1,2,3,6-tetrahydropyridine-1-carbonyl)phenyl)-2-methylprop-2-en-1-one], the IC50 on PI3Kα (p110α/p85α) was in the range of 10 to 100 nM. The EC50 in the assay on Phospho-Akt(Ser473) lay in the range of 100 to 1000 nM.

For `C=CC(=O)Nc1cccc(N2CC=C(c3cc(-c4cnc(N)nc4)nc(N4CCOCC4)c3)CC2)c1` [XII-48], at PI3Kα (p110α/p85α), the IC50 was 100 to 1000 nM. In addition, in the assay on Phospho-Akt(Ser473), the EC50 was 100 to 1000 nM.

As for `CC(C)=CC(=O)CCC(=O)N1CCC2(CC1)CN(c1cc(-c3cnc(N)nc3)nc(N3CCOCC3)c1)C2` [XII-39, 1-(2-(2-(2-aminopyrimidin-5-yl)-6-morpholinopyridin-4-yl)-2,7-diazaspiro[3.5]nonan-7-yl)-6-methylhept-5-ene-1,4-dione], on PI3Kα (p110α/p85α), the IC50 lay in the range of 10 to 100 nM. Also, in the assay on Phospho-Akt(Ser473), the EC50 was 100 to 1000 nM.

As for `C=CC(=O)Nc1ccc(S(=O)(=O)N2CCN(Cc3cc4nc(-c5cccc6[nH]ncc56)nc(N5CCOCC5)c4s3)CC2)cc1` [II-a-118, N-(4-(4-((2-(1H-indazol-4-yl)-4-morpholinothieno[3,2-d]pyrimidin-6-yl)methyl)piperazin-1-ylsulfonyl)phenyl)acrylamide], the IC50 at PI3Kα (p110α/p85α) was 100 to 1000 nM. The EC50 with Phospho-Akt(Ser473) lay in the range of 100 to 1000 nM.

Take `CC(C)=CC(=O)CCCC(=O)N(C)Cc1cc2nc(-c3cnc(N)nc3)nc(N3CCOCC3)c2s1` [II-a-174, N-((2-(2-aminopyrimidin-5-yl)-4-morpholinothieno[3,2-d]pyrimidin-6-yl)methyl)-N,7-dimethyl-5-oxooct-6-enamide]: the IC50 on PI3Kα (p110α/p85α) was in the range of 10 to 100 nM. In addition, in the assay on Phospho-Akt(Ser473), the EC50 was at most 10 nM.

As to `CC(C)=CC(=O)CCCC(=O)N1CCC2(CC1)CN(c1cc(-c3cnc(N)nc3)nc(N3CCOCC3)c1)C2` [XII-41, 1-(2-(2-(2-aminopyrimidin-5-yl)-6-morpholinopyridin-4-yl)-2,7-diazaspiro[3.5]nonan-7-yl)-7-methyloct-6-ene-1,5-dione], at PI3Kα (p110α/p85α), the IC50 is above 1000 nM. The EC50 in the assay with Phospho-Akt(Ser473) is 100 to 1000 nM.

With `C=CC(=O)Nc1ccc(C(=O)N2CCC(n3ncc4c(N5CCOCC5)nc(-c5cnc(N)nc5)nc43)CC2)cc1` [VII-12, N-(4-(4-(6-(2-aminopyrimidin-5-yl)-4-morpholino-1H-pyrazolo[3,4-d]pyrimidin-1-yl)piperidine-1-carbonyl)phenyl)acrylamide], the IC50 on PI3Kα (p110α/p85α) was in the range of 100 to 1000 nM. Further, the EC50 with Phospho-Akt(Ser473) lay in the range of 10 to 100 nM.

As for `O=C(/C=C/c1ccncc1)CCC(=O)N1CCN(Cc2cc3nc(-c4cccc5[nH]ncc45)nc(N4CCOCC4)c3s2)CC1` [II-a-141, (E)-1-(4-((2-(1H-indazol-4-yl)-4-morpholinothieno[3,2-d]pyrimidin-6-yl)methyl)piperazin-1-yl)-6-(pyridin-4-yl)hex-5-ene-1,4-dione], at PI3Kα (p110α/p85α), the IC50 lay within 10 to 100 nM. The EC50 with Phospho-Akt(Ser473) lay in the range of 100 to 1000 nM.

The values are drawn from US20110230476A1, “PI3 KINASE INHIBITORS AND USES THEREOF” (AVILA THERAPEUTICS, INC., priority 2009, published 2011).
